Reference: the OPERA property sets (Mansouri et al. 2018)

First: CCCCCC(C)C(C)C (centres undefined)
Second: CCCCC[C@@H](O)CC
The boiling point of the first is lower: 164 °C for the first, 171 °C for the second.

Going from `C#CC=O` to `C#CCCC(C)C`, the boiling point rises from 60 °C to 92 °C.

Compared with `C=CCc1ccccc1`, `c1ccc(CC2CCCCN2)cc1` (centres undefined) is higher in boiling point: 156 °C for the first, 268 °C for the second.

First: Cc1cc(C)ncn1
Second: Cc1cc(C(C)(C)C)cc(C)c1O
The boiling point of the first is lower: 159 °C for the first, 248 °C for the second.

First: C=Cc1ccco1
Second: N#Cc1cccc(C(F)(F)F)c1
The boiling point of the first is lower: 99.5 °C for the first, 189 °C for the second.

Going from `CCC(C)OC(C)=O` (centres undefined) to `CCCCC(CC)COC(C)=O` (centres undefined), the boiling point rises from 112 °C to 199 °C.

First: C=CCCC(C)=O
Second: CC(C)=CCCC(C)O (centres undefined)
The boiling point of the first is lower: 130 °C for the first, 175 °C for the second.

Going from `c1ccc(Nc2ccc3ccccc3c2)cc1` to `Clc1cccc(-c2cccc(Cl)c2)c1`, the boiling point falls from 396 °C to 320 °C.

Going from `CC1CC(C)CC(O)C1` (centres undefined) to `C[C@@H]1CC[C@H]2[C@@H]1[C@H]1[C@@H](CC[C@@]2(C)O)C1(C)C`, the boiling point rises from 187 °C to 292 °C.

Going from `CCC(C)CC(CC)CC` (centres undefined) to `CC(C)COP(=O)(OCC(C)C)OCC(C)C`, the boiling point rises from 158 °C to 264 °C.

First: O=C=Nc1ccccc1Cl
Second: CCOC(=O)c1cccc([N+](=O)[O-])c1
The boiling point of the first is lower: 200 °C for the first, 297 °C for the second.

First: CN=C=S
Second: C#CCCCCC#C
The boiling point of the first is lower: 119 °C for the first, 136 °C for the second.

Compared with `CC(C)[C@]12CC(=O)[C@H](C)[C@H]1C2`, `FCC1CO1` (centres undefined) is lower in boiling point: 203 °C for the first, 85.5 °C for the second.

First: ClC(Cl)=CBr
Second: FC(Cl)C(F)(F)C(F)(F)Cl (centres undefined)
The boiling point of the first is higher: 108 °C for the first, 56.1 °C for the second.

Going from `CCCCCCCCN(CCCCCCCC)CCCCCCCC` to `CCCCCCC(=O)OC(=O)CCCCCC`, the boiling point falls from 366 °C to 270 °C.

First: FC(F)=C(F)C(F)(F)C(F)(F)C(F)(F)C(F)(F)C(F)(F)F
Second: CCCCOCCOCCOC(C)=O
The boiling point of the first is lower: 81 °C for the first, 245 °C for the second.

Going from `CCNC(=O)Nc1ncc([N+](=O)[O-])s1` to `CCOC(=O)c1cccc([N+](=O)[O-])c1`, the melting point falls from 228 °C to 47 °C.

Compared with `C=CCc1ccccc1`, `c1ccc(CC2CCCCN2)cc1` (centres undefined) is higher in melting point: -40 °C for the first, 32 °C for the second.

First: CN1CCN(C2=Nc3cc(Cl)ccc3Nc3ccccc32)CC1
Second: Clc1cccc(-c2cccc(Cl)c2)c1
The melting point of the first is higher: 184 °C for the first, 29 °C for the second.

Compared with `O=P(O)(Oc1ccccc1)Oc1ccccc1`, `CC(C(=O)O)(c1ccccc1)c1ccccc1` is higher in melting point: 67.5 °C for the first, 176 °C for the second.

Compared with `c1ccc2c(c1)cc1ccc3c4ccccc4cc4ccc2c1c43`, `c1ccc(Nc2ccc3ccccc3c2)cc1` is lower in melting point: 317 °C for the first, 108 °C for the second.

First: Cc1cc(C)ncn1
Second: Cc1cc(C(C)(C)C)cc(C)c1O
The melting point of the first is lower: 25 °C for the first, 82.4 °C for the second.

Compared with `CC1(C)OC(=O)NC1=O`, `CCC1(C)CC(=O)NC1=O` (centres undefined) is lower in melting point: 76.5 °C for the first, 65 °C for the second.

Compared with `C=Cc1ccco1`, `c1coc(CSSCc2ccco2)c1` is higher in melting point: -94 °C for the first, 10 °C for the second.

First: CCC(C)OC(C)=O (centres undefined)
Second: CCCCC(CC)COC(C)=O (centres undefined)
The melting point of the first is lower: -98.9 °C for the first, -80 °C for the second.

First: C#CCCC(C)C
Second: CCCCC[C@@H](O)CC
The melting point of the first is lower: -125 °C for the first, -45 °C for the second.

Going from `Cc1cccc(C)c1NC(=O)C(C)N` (centres undefined) to `NC(=O)c1c(F)cccc1F`, the melting point falls from 256 °C to 146 °C.

Compared with `COc1cc(O)c(C(=O)c2ccccc2)cc1S(=O)(=O)O`, `O=C(Nc1ccc(O)cc1)c1ccccc1O` is higher in melting point: 145 °C for the first, 179 °C for the second.

Compared with `CCCCCCCCCCCCC(C)=O`, `CCCCCCC(=O)OC(=O)CCCCCC` is lower in melting point: 33.5 °C for the first, -12.4 °C for the second.

Compared with `O=C(N[C@H](CO)[C@H](O)c1ccc([N+](=O)[O-])cc1)C(Cl)Cl`, `NC(=O)c1ccc([N+](=O)[O-])cc1` is higher in melting point: 150 °C for the first, 200 °C for the second.

First: CCCCCCCCCCCCCCCCCC(=O)OCCOCCOCCOCCO
Second: CCCCOCCOCCOC(C)=O
The melting point of the first is higher: 40 °C for the first, -32 °C for the second.

First: CCCS(=O)CCC
Second: CCCCCCCCCCc1ccc(N)cc1
The melting point of the first is lower: 22.5 °C for the first, 25 °C for the second.

Compared with `COc1ccc2c(c1)c(CC(=O)OCC(=O)O)c(C)n2C(=O)c1ccc(Cl)cc1`, `CCCOC(=O)c1cc(O)c(O)c(O)c1` is lower in melting point: 152 °C for the first, 130 °C for the second.

First: CC1CC(C)CC(O)C1 (centres undefined)
Second: C[C@@H]1CC[C@H]2[C@@H]1[C@H]1[C@@H](CC[C@@]2(C)O)C1(C)C
The melting point of the first is lower: 11.6 °C for the first, 105 °C for the second.

Compared with `CCc1cn([C@H]2C[C@H](O)[C@@H](CO)O2)c(=O)[nH]c1=O`, `CN1C[C@@H]2C[C@H](C1)c1cccc(=O)n1C2` is lower in melting point: 152 °C for the first, 137 °C for the second.

First: O=C=Nc1ccccc1Cl
Second: CC(C)CC(=O)C=Cc1ccccc1
The melting point of the first is lower: 30.5 °C for the first, 43 °C for the second.

First: O=[N+]([O-])c1ccc(NS(=O)(=O)c2ccc(Cl)c(C(F)(F)F)c2)c(Cl)c1
Second: Clc1cc(Cl)c(-c2c(Cl)cccc2Cl)c(Cl)c1
The melting point of the first is higher: 170 °C for the first, 85 °C for the second.

Going from `CN=C=S` to `S=C=Nc1ccc(N=C=S)cc1`, the melting point rises from 36 °C to 132 °C.

Compared with `O=C1NC(=O)C2C3C(C(O)(c4ccccc4)c4ccccn4)=CC(C3=C(c3ccccc3)c3ccccn3)C12` (centres undefined), `c1ccc(-c2ccc3ncccc3c2)cc1` is lower in melting point: 194 °C for the first, 110 °C for the second.

Compared with `N#Cc1cccc(C(F)(F)F)c1`, `NC(=O)c1cccnc1` is higher in melting point: 14.5 °C for the first, 130 °C for the second.

Going from `ClC(Cl)=CBr` to `COc1cc(OC)cc(C(=O)O)c1`, the melting point rises from -88.5 °C to 186 °C.

`Cc1cc(C(=O)NCCc2ccc(S(=O)(=O)NC(=O)NN3CCCCCC3)cc2)no1` gave a melting point of 189 °C.

First: CCCCC(CC)COC(=O)COc1cc(Cl)c(Cl)cc1Cl (centres undefined)
Second: CCCCC(CC)COC(C)=O (centres undefined)
The log10 vapour pressure (mmHg) of the first is lower: -5.92 for the first, -0.638 for the second.

Compared with `CCC(C)OC(C)=O` (centres undefined), `CCCCOCCOCCOC(C)=O` is lower in log10 vapour pressure (mmHg): 1.23 for the first, -1.4 for the second.

Going from `C=CCCC(C)=O` to `CCCCC[C@@H](O)CC`, the log10 vapour pressure (mmHg) falls from 1.02 to -0.592.

First: Clc1cccc(-c2cccc(Cl)c2)c1
Second: OCCOc1ccc(Cl)cc1Cl
The log10 vapour pressure (mmHg) of the first is higher: -3.19 for the first, -3.7 for the second.

Going from `CN=C=S` to `FC(Cl)C(F)(F)C(F)(F)Cl` (centres undefined), the log10 vapour pressure (mmHg) rises from 0.549 to 2.46.

First: CC(C)[C@]12CC(=O)[C@H](C)[C@H]1C2
Second: COc1cc(OC)cc(C(=O)O)c1
The log10 vapour pressure (mmHg) of the first is higher: -0.385 for the first, -6.86 for the second.

With `CCCCCCCCC(=O)N(CCO)CCO` the ready biodegradability was “readily biodegradable”.
With `N[C@@H](CC(=O)O)C(=O)O` the ready biodegradability was “readily biodegradable”.
In the case of `CCC(C)OC(C)=O` (centres undefined), the ready biodegradability is reported as “readily biodegradable”.
With `Cc1cc(C(=O)C(F)(F)F)ccc1Cl` the ready biodegradability was “not readily biodegradable”.
For `c1ccc(Nc2ccc3ccccc3c2)cc1`, the ready biodegradability was “not readily biodegradable”.
With `CN=C=S` the ready biodegradability was “not readily biodegradable”.
With `CCCCCCCCN(CCCCCCCC)CCCCCCCC` the ready biodegradability was “readily biodegradable”.
With `CC(c1ccccc1)c1ccc(O)cc1` (centres undefined) the ready biodegradability was “not readily biodegradable”.
In the case of `CCCCOCCOCCOC(C)=O`, the ready biodegradability is reported as “readily biodegradable”.

With `Clc1cccc(-c2cccc(Cl)c2)c1` the log10 Henry constant (atm·m³/mol) was -3.63.

Compared with `NC(=O)c1ccc([N+](=O)[O-])cc1`, `CCOC(=O)COC(=O)c1ccccc1C(=O)OCC` is higher in log10 Koc (L/kg): 1.93 for the first, 2.54 for the second.

First: CCOP(=S)(OCC)OCCSCC
Second: CN=C=S
The log10 Koc (L/kg) of the first is higher: 2.59 for the first, 0.97 for the second.
